The record followed here is PMC5218480 (PLoS ONE, 2017).

For this assay, the system named is MV-4-11 cells. Briefly: Gene expression microarray analysis (Affymetrix PrimeView) and GSEA. In kind it is cell-based, human. On the set-up: RFU PODN (11730768_x_at) / Fold change /veh PODN (11730768_x_at) / RFU LINC00158 (11744669_a_at) / Fold change /veh LINC00158 (11744669_a_at) / RFU DUSP10 (11751237_a_at) / Fold change /veh DUSP10 (11751237_a_at) / RFU ID3 (11757404_x_at) / Fold change /veh ID3 (11757404_x_at) / RFU PLEKHG5 (11737974_s_at) / Fold change /veh PLEKHG5 (11737974_s_at) / RFU LRRC4B (11730491_at) / Fold change /veh LRRC4B (11730491_at) / RFU GIMAP4 (11747438_a_at) / Fold change /veh GIMAP4 (11747438_a_at) / RFU KRT8 (11758183_x_at) / Fold change /veh KRT8 (11758183_x_at) / RFU CNN1 (11734310_a_at) / Fold change /veh CNN1 (11734310_a_at) / RFU VPS37D (11726825_at) / Fold change /veh VPS37D (11726825_at) / RFU C10orf10 (11716522_x_at) / Fold change /veh C10orf10 (11716522_x_at) / RFU KIR2DL2 /// KIR2DL4 /// KIR2DL5A /// KIR2DL5B /// KIR2DS1 /// KIR2DS2 /// KIR2DS3 /// KIR2DS4 /// KIR3DL3 /// KIR3DL3 /// KIR3DS1 (11738374_at) / Fold change /veh KIR2DL2 /// KIR2DL4 /// KIR2DL5A /// KIR2DL5B /// KIR2DS1 /// KIR2DS2 /// KIR2DS3 /// KIR2DS4 /// KIR3DL3 /// KIR3DL3 /// KIR3DS1 (11738374_at) / RFU C1QL1 (11718748_at) / Fold change /veh C1QL1 (11718748_at) / RFU TMPRSS4 (11747572_a_at) / Fold change /veh TMPRSS4 (11747572_a_at) / RFU HAMP (11756126_x_at) / Fold change /veh HAMP (11756126_x_at) / RFU RNFT2 (11725882_a_at) / Fold change /veh RNFT2 (11725882_a_at) / RFU NR4A2 (11747474_a_at) / Fold change /veh NR4A2 (11747474_a_at) / RFU ABCC12 (11746883_a_at) / Fold change /veh ABCC12 (11746883_a_at) / RFU TMEM136 (11760407_x_at) / Fold change /veh TMEM136 (11760407_x_at) / RFU CLDN22 /// WWC2 (11732394_at) / Fold change /veh CLDN22 /// WWC2 (11732394_at) / RFU HLA-DPB1 (11760878_x_at) / Fold change /veh HLA-DPB1 (11760878_x_at) / RFU SPINT1 (11716480_a_at) / Fold change /veh SPINT1 (11716480_a_at) / RFU GAP43 (11754022_s_at) / Fold change /veh GAP43 (11754022_s_at) / RFU A4GNT (11735810_at) / Fold change /veh A4GNT (11735810_at) / RFU PRB3 (11715151_x_at) / Fold change /veh PRB3 (11715151_x_at) / RFU TUBB4B (11761932_at) / Fold change /veh TUBB4B (11761932_at) / RFU CAPN14 (11732068_a_at) / Fold change /veh CAPN14 (11732068_a_at) / RFU TMCC2 (11721928_a_at) / Fold change /veh TMCC2 (11721928_a_at) / RFU IRGQ (11745062_a_at) / Fold change /veh IRGQ (11745062_a_at) / RFU FAM174B (11720279_a_at) / Fold change /veh FAM174B (11720279_a_at) / RFU TMPRSS4 (11748680_a_at) / Fold change /veh TMPRSS4 (11748680_a_at) / RFU FAM212B (11763350_a_at) / Fold change /veh FAM212B (11763350_a_at) / RFU PLEKHG5 (11743358_a_at) / Fold change /veh PLEKHG5 (11743358_a_at) / RFU ZSCAN30 (11745921_a_at) / Fold change /veh ZSCAN30 (11745921_a_at) / RFU CMKLR1 (11741424_a_at) / Fold change /veh CMKLR1 (11741424_a_at) / RFU LOC101060620 /// MAPK8IP1 (11723275_at) / Fold change /veh LOC101060620 /// MAPK8IP1 (11723275_at) / RFU SPTSSB (11747773_x_at) / Fold change /veh SPTSSB (11747773_x_at) / RFU PRSS12 (11739890_at) / Fold change /veh PRSS12 (11739890_at) / RFU BIN1 (11741810_x_at) / Fold change /veh BIN1 (11741810_x_at) / RFU WNT11 (11732464_a_at) / Fold change /veh WNT11 (11732464_a_at) / RFU C10orf10 (11716521_a_at) / Fold change /veh C10orf10 (11716521_a_at) / RFU C5orf56 (11738089_at) / Fold change /veh C5orf56 (11738089_at) / RFU CYB561 (11721691_x_at) / Fold change /veh CYB561 (11721691_x_at) / RFU ANKRD19P (11752326_a_at) / Fold change /veh ANKRD19P (11752326_a_at) / RFU OR2T12 /// OR2T33 /// OR2T8 (11738714_s_at) / Fold change /veh OR2T12 /// OR2T33 /// OR2T8 (11738714_s_at) / RFU VCAN (11748164_a_at) / Fold change /veh VCAN (11748164_a_at) / RFU JSRP1 (11732532_at) / Fold change /veh JSRP1 (11732532_at) / RFU KRTAP10-11 (11738290_x_at) / Fold change /veh KRTAP10-11 (11738290_x_at) / RFU MYO3A (11730013_a_at) / Fold change /veh MYO3A (11730013_a_at) / RFU EBF3 (11725865_a_at) / Fold change /veh EBF3 (11725865_a_at) / RFU CAMK2N1 (11719241_x_at) / Fold change /veh CAMK2N1 (11719241_x_at) / RFU C5orf56 (11738088_a_at) / Fold change /veh C5orf56 (11738088_a_at) / RFU OLFML3 (11715873_a_at) / Fold change /veh OLFML3 (11715873_a_at) / RFU LOC100653217 /// NTM (11731650_a_at) / Fold change /veh LOC100653217 /// NTM (11731650_a_at) / RFU MAPK11 (11762145_a_at) / Fold change /veh MAPK11 (11762145_a_at) / RFU FIZ1 (11724087_x_at) / Fold change /veh FIZ1 (11724087_x_at) / RFU OASL (11726364_x_at) / Fold change /veh OASL (11726364_x_at) / RFU SOX15 (11748057_x_at) / Fold change /veh SOX15 (11748057_x_at) / RFU CD79A (11719716_a_at) / Fold change /veh CD79A (11719716_a_at) / RFU HIST1H1D (11736915_at) / Fold change /veh HIST1H1D (11736915_at) / RFU CASKIN2 (11723855_a_at) / Fold change /veh CASKIN2 (11723855_a_at) / RFU LOC730098 (11760151_x_at) / Fold change /veh LOC730098 (11760151_x_at) / RFU OR4N2 (11742367_at) / Fold change /veh OR4N2 (11742367_at) / RFU PRRT2 (11749266_a_at) / Fold change /veh PRRT2 (11749266_a_at) / RFU SNX32 (11753110_a_at) / Fold change /veh SNX32 (11753110_a_at) / RFU CDHR5 (11726645_a_at) / Fold change /veh CDHR5 (11726645_a_at) / RFU RCAN1 (11760418_a_at) / Fold change /veh RCAN1 (11760418_a_at) / RFU FAM167A (11723789_a_at) / Fold change /veh FAM167A (11723789_a_at) / RFU FAM26E (11764081_at) / Fold change /veh FAM26E (11764081_at) / RFU ISYNA1 (11749810_s_at) / Fold change /veh ISYNA1 (11749810_s_at) / RFU ACY1 (11761880_at) / Fold change /veh ACY1 (11761880_at) / RFU 11764098_at / Fold change /veh 11764098_at / RFU SAMD14 (11745864_x_at) / Fold change /veh SAMD14 (11745864_x_at) / RFU NPB (11741838_a_at) / Fold change /veh NPB (11741838_a_at) / RFU TMPRSS6 (11731388_a_at) / Fold change /veh TMPRSS6 (11731388_a_at) / RFU KRTAP10-2 (11738614_at) / Fold change /veh KRTAP10-2 (11738614_at) / RFU ARHGAP8 /// PRR5-ARHGAP8 (11727945_x_at) / Fold change /veh ARHGAP8 /// PRR5-ARHGAP8 (11727945_x_at) / RFU KRTAP5-7 /// NADSYN1 (11734609_at) / Fold change /veh KRTAP5-7 /// NADSYN1 (11734609_at) / RFU RASL12 (11751679_a_at) / Fold change /veh RASL12 (11751679_a_at) / RFU CDKN2B (11736163_a_at) / Fold change /veh CDKN2B (11736163_a_at) / RFU PRF1 (11729649_at) / Fold change /veh PRF1 (11729649_at) / RFU, ZNF638 /// ZNF638-IT1 / Fold change vs veh, ZNF638 /// ZNF638-IT1 / RFU, PANK3 / Fold change vs veh, PANK3 / RFU, SH3YL1 / Fold change vs veh, SH3YL1 / RFU, ZEB2 / Fold change vs veh, ZEB2 / RFU, NRIP1 / Fold change vs veh, NRIP1 / RFU, PTTG1IP / Fold change vs veh, PTTG1IP / RFU, CAPN2 / Fold change vs veh, CAPN2 / RFU, MED14 / Fold change vs veh, MED14 / RFU, SNORA58 / Fold change vs veh, SNORA58 / RFU, C1orf63 / Fold change vs veh, C1orf63 / RFU, LRRFIP1 / Fold change vs veh, LRRFIP1 / RFU, NDUFAF7 / Fold change vs veh, NDUFAF7 / RFU, SLC12A2 / Fold change vs veh, SLC12A2 / RFU, IBTK / Fold change vs veh, IBTK / RFU, ESF1 / Fold change vs veh, ESF1 / Fold change vs veh, TMEM50B / RFU, TAOK1 / Fold change vs veh, TAOK1 / RFU, ACBD3 / Fold change vs veh, ACBD3 / RFU, TMA16 / Fold change vs veh, TMA16 / RFU, RWDD3 / Fold change vs veh, RWDD3 / RFU, BCAT1 / Fold change vs veh, BCAT1 / RFU, EDEM3 / Fold change vs veh, EDEM3 / RFU, TMEM33 / Fold change vs veh, TMEM33 / RFU, WDR75 / Fold change vs veh, WDR75 / RFU, AHCTF1 / Fold change vs veh, AHCTF1 / RFU, TFRC / Fold change vs veh, TFRC / RFU, ZDHHC17 / Fold change vs veh, ZDHHC17 / RFU, NOM1 / Fold change vs veh, NOM1 / RFU, ARL8B / Fold change vs veh, ARL8B / RFU, ZBTB11 / Fold change vs veh, ZBTB11 / RFU, TAMM41 / Fold change vs veh, TAMM41 / RFU, KIAA1704 /// LOC100996395 / Fold change vs veh, KIAA1704 /// LOC100996395 / RFU, ING1 / Fold change vs veh, ING1 / RFU, TRMT61B / Fold change vs veh, TRMT61B / RFU, FUBP3 / Fold change vs veh, FUBP3 / RFU, TP53 / Fold change vs veh, TP53 / RFU, TNKS2 / Fold change vs veh, TNKS2 / RFU, ZFP14 / Fold change vs veh, ZFP14 / RFU, ACTR2 / Fold change vs veh, ACTR2 / RFU, PPP3R1 / Fold change vs veh, PPP3R1 / RFU, PIK3R1 / Fold change vs veh, PIK3R1 / RFU, HNRNPA1 / Fold change vs veh, HNRNPA1 / RFU, RNF170 / Fold change vs veh, RNF170 / RFU, ZNF28 / Fold change vs veh, ZNF28 / RFU, RNGTT / Fold change vs veh, RNGTT / RFU, OGT / Fold change vs veh, OGT / RFU, BRD1 / Fold change vs veh, BRD1 / RFU, MARS / Fold change vs veh, MARS / RFU, ZNF655 / Fold change vs veh, ZNF655 / RFU, FAHD1 / Fold change vs veh, FAHD1 / RFU, BDP1 / Fold change vs veh, BDP1 / RFU, LRRCC1 / Fold change vs veh, LRRCC1 / RFU, ARID1A / Fold change vs veh, ARID1A / RFU, ZNF146 / Fold change vs veh, ZNF146 / RFU, ZNF330 / Fold change vs veh, ZNF330 / RFU, GPN3 / Fold change vs veh, GPN3 / RFU, C9orf123 / Fold change vs veh, C9orf123 / RFU, N4BP2L2 / Fold change vs veh, N4BP2L2 / RFU, ARFIP1 / Fold change vs veh, ARFIP1 / RFU, FAM179B / Fold change vs veh, FAM179B / RFU, BCL10 / Fold change vs veh, BCL10 / RFU, UHRF1BP1L / Fold change vs veh, UHRF1BP1L / RFU, BET1 / Fold change vs veh, BET1 / RFU, CNOT2 / Fold change vs veh, CNOT2 / RFU, ZNF268 / Fold change vs veh, ZNF268 / Fold change vs veh, ZNF507 / RFU, DGCR2 / Fold change vs veh, DGCR2 / RFU, WDSUB1 / Fold change vs veh, WDSUB1 / Fold change vs veh, HSP90B1 /// MIR3652 / RFU, ADSS / Fold change vs veh, ADSS / RFU, GK / Fold change vs veh, GK / RFU, ZNF148 / Fold change vs veh, ZNF148 / RFU, TAF9 / Fold change vs veh, TAF9 / RFU, SLC1A5 / Fold change vs veh, SLC1A5 / RFU, SLMO2 / Fold change vs veh, SLMO2 / RFU, ABCC4 / Fold change vs veh, ABCC4 / RFU, LOC101060439 /// RAP1B / Fold change vs veh, LOC101060439 /// RAP1B / RFU, RFX7 / Fold change vs veh, RFX7 / RFU, GTPBP10 / Fold change vs veh, GTPBP10 / RFU, CNEP1R1 / Fold change vs veh, CNEP1R1 / RFU, BIVM-ERCC5 /// ERCC5 / Fold change vs veh, BIVM-ERCC5 /// ERCC5 / RFU, ILF3 / Fold change vs veh, ILF3 / RFU 11762660_at / Fold change /veh 11762660_at / RFU VCAN (11757783_s_at) / Fold change /veh VCAN (11757783_s_at) / RFU DDX43 (11728927_at) / Fold change /veh DDX43 (11728927_at) / RFU KRT8 (11758188_x_at) / Fold change /veh KRT8 (11758188_x_at) / RFU NKD1 (11759106_at) / Fold change /veh NKD1 (11759106_at) / RFU SRD5A1 (11742802_a_at) / Fold change /veh SRD5A1 (11742802_a_at) / RFU TPSAB1 /// TPSB2 (11721975_s_at) / Fold change /veh TPSAB1 /// TPSB2 (11721975_s_at) / RFU GSTM3 (11746129_a_at) / Fold change /veh GSTM3 (11746129_a_at) / RFU IL23R (11737362_x_at) / Fold change /veh IL23R (11737362_x_at) / RFU TMEM51 (11727254_a_at) / Fold change /veh TMEM51 (11727254_a_at) / RFU PIWIL2 (11732686_x_at) / Fold change /veh PIWIL2 (11732686_x_at) / RFU ORM1 (11744905_x_at) / Fold change /veh ORM1 (11744905_x_at) / RFU CCDC152 (11743942_at) / Fold change /veh CCDC152 (11743942_at) / RFU ECM1 (11717891_a_at) / Fold change /veh ECM1 (11717891_a_at) / RFU IL23R (11748794_a_at) / Fold change /veh IL23R (11748794_a_at) / RFU TNFAIP8L3 (11732012_x_at) / Fold change /veh TNFAIP8L3 (11732012_x_at) / RFU MBOAT4 (11741988_at) / Fold change /veh MBOAT4 (11741988_at) / RFU 11764193_at / Fold change /veh 11764193_at / RFU TMEM53 (11763286_at) / Fold change /veh TMEM53 (11763286_at) / RFU MAGEB2 (11727129_at) / Fold change /veh MAGEB2 (11727129_at) / RFU TMEM200A (11744735_a_at) / Fold change /veh TMEM200A (11744735_a_at) / RFU CCDC152 (11751479_a_at) / Fold change /veh CCDC152 (11751479_a_at) / RFU FAM211A (11726209_a_at) / Fold change /veh FAM211A (11726209_a_at) / RFU RGS16 (11746705_a_at) / Fold change /veh RGS16 (11746705_a_at) / RFU VCAN (11755009_s_at) / Fold change /veh VCAN (11755009_s_at) / RFU RHOB (11743442_s_at) / Fold change /veh RHOB (11743442_s_at) / RFU RGS16 (11720943_a_at) / Fold change /veh RGS16 (11720943_a_at) / RFU RGS16 (11720944_at) / Fold change /veh RGS16 (11720944_at) / RFU, VPS4B / Fold change vs veh, VPS4B / RFU, CREB1 / Fold change vs veh, CREB1 / RFU, DNAJC13 / Fold change vs veh, DNAJC13 / RFU, GNAQ / Fold change vs veh, GNAQ / RFU, CDK5R1 / Fold change vs veh, CDK5R1 / RFU, ZRANB3 / Fold change vs veh, ZRANB3 / RFU, CUL4A / Fold change vs veh, CUL4A / RFU, CCNY / Fold change vs veh, CCNY / RFU, UFL1 / Fold change vs veh, UFL1 / RFU, COG3 / Fold change vs veh, COG3 / RFU, DIAPH2 / Fold change vs veh, DIAPH2 / RFU, SKA2 / Fold change vs veh, SKA2 / RFU, AFF3 / Fold change vs veh, AFF3 / RFU, LMF1 / Fold change vs veh, LMF1 / RFU, IPO11 / Fold change vs veh, IPO11 / RFU, DFFB / Fold change vs veh, DFFB / RFU, FOXP1 / Fold change vs veh, FOXP1 / RFU, CARD8 / Fold change vs veh, CARD8 / RFU, STRN3 / Fold change vs veh, STRN3 / RFU, ADK / Fold change vs veh, ADK / RFU, RASSF2 / Fold change vs veh, RASSF2 / RFU, WIPF1 / Fold change vs veh, WIPF1 / RFU, LARP1B / Fold change vs veh, LARP1B / RFU, RASA1 / Fold change vs veh, RASA1 / RFU, RB1 / Fold change vs veh, RB1 / RFU, PPFIA1 / Fold change vs veh, PPFIA1 / RFU, MAT2A / Fold change vs veh, MAT2A / RFU, CCT5 / Fold change vs veh, CCT5 / RFU, WDR92 / Fold change vs veh, WDR92 / RFU, CUX1 / Fold change vs veh, CUX1 / RFU, TTC7A / Fold change vs veh, TTC7A / RFU, TMEM135 / Fold change vs veh, TMEM135 / RFU, DEPTOR / Fold change vs veh, DEPTOR / RFU, CPM / Fold change vs veh, CPM / RFU, DNAJB6 / Fold change vs veh, DNAJB6 / RFU, CACNA2D3 / Fold change vs veh, CACNA2D3 / RFU, DTX4 / Fold change vs veh, DTX4 / RFU, TFCP2 / Fold change vs veh, TFCP2 / RFU, GMCL1 /// GMCL1P1 / Fold change vs veh, GMCL1 /// GMCL1P1 / RFU, AEBP2 / Fold change vs veh, AEBP2 / RFU, SNHG1 /// SNORD22 /// SNORD25 /// SNORD26 /// SNORD27 /// SNORD28 /// SNORD29 /// SNORD31 / Fold change vs veh, SNHG1 /// SNORD22 /// SNORD25 /// SNORD26 /// SNORD27 /// SNORD28 /// SNORD29 /// SNORD31 / Fold change (Aza/veh), C12orf56 (ProbeSet 11735607_a_at) / Fold change (ACY-1035/veh), C12orf56 (ProbeSet 11735607_a_at) / Fold change (Aza/veh), FGFR1OP (ProbeSet 11751329_s_at) / Fold change (ACY-1035/veh), FGFR1OP (ProbeSet 11751329_s_at) / Fold change (Aza/veh), VPS36 (ProbeSet 11739960_a_at) / Fold change (ACY-1035/veh), VPS36 (ProbeSet 11739960_a_at) / RFU SYPL1 (11715823_x_at) / Fold change /veh SYPL1 (11715823_x_at) / RFU IGFBP7 (11715501_s_at) / Fold change /veh IGFBP7 (11715501_s_at) / RFU REEP3 (11722064_at) / Fold change /veh REEP3 (11722064_at) / RFU IGLL1 (11728026_x_at) / Fold change /veh IGLL1 (11728026_x_at): dose or concentration left out as unconfirmed. Conditions: gene C12orf56; ACY-1035 vs DMSO; LIST F.

As to `Nc1ccc(-c2cccs2)cc1NC(=O)c1ccc2c(c1)cc(C1CC1)n2CCN1CCOCC1` [ACY-1035], the “Fold change (ACY-1035/veh), C12orf56 (ProbeSet 11735607_a_at)” value is 0.39.
